Measured values published in ChEMBL document CHEMBL1201862, “PubChem BioAssay data set” (2004).
The source made the active and inactive calls.

Experiments:
[1] = molecular target: Delta-type opioid receptor (Homo sapiens, UniProt P41143); assay: Counterscreen for agonists of heterodimerization of the mu 1 (OPRM1) and delta 1 (OPRD1) opioid receptors: Luminescence-based cell-based high throughput dose response assay to identify agonists of OPRD1 homodimerization. [Related pubchem assays (depositor defined):AID504326, AID504355, AID504692, AID504904, AID504905]; format: functional
[2] = molecular target: Mu-type opioid receptor (Homo sapiens, UniProt P35372); assay: Counterscreen for agonists of heterodimerization of the mu 1 (OPRM1) and delta 1 (OPRD1) opioid receptors: Luminescence-based cell-based high throughput dose response assay to identify agonists of OPRM1 homodimerization.; format: functional;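 note: U2OS cells expressing OPRM1 and beta-arrestin as split beta-galactosidase partners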
[3] = molecular target: 5-hydroxytryptamine receptor 5A (Homo sapiens, UniProt P47898); assay: Counterscreen for agonists of OPRM1-OPRD1 heterodimerization: luminescence-based cell-based high throughput dose response assay to identify agonists of 5-hydroxytryptamine (serotonin) 5A receptor (HTR5A). [Related pubchem assays (depositor defined):AID504326, AID504355, AID504692, AID504904, AID504905]; format: functional
[4] = molecular target: T1, Alkaline phosphatase, tissue-nonspecific isozyme (Homo sapiens, UniProt P05186); assay: TNAP enzyme inhibition by screening hits, dose response, selectivity assay for mouse IAP inhibitor project, biochemical, human TNAP, uHTS hits (AID 488906); format: functional
T1 sequence (P05186 whole entry): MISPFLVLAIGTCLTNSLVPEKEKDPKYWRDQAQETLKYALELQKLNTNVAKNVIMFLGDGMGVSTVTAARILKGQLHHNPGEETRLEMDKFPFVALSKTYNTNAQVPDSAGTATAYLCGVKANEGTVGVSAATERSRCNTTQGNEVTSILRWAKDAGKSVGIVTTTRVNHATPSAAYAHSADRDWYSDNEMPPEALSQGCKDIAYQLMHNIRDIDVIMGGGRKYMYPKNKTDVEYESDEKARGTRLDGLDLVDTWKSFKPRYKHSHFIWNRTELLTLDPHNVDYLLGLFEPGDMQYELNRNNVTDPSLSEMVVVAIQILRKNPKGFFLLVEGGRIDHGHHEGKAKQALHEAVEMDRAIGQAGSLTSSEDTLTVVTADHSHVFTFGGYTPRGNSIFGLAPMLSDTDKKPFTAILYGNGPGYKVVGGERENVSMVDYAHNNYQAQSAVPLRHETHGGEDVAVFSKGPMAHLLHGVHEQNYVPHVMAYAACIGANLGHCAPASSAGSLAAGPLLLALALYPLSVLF

[5] = molecular target: Intestinal-type alkaline phosphatase (Homo sapiens, UniProt P09923); assay: inhibition of human intestinal alkaline phosphatase – biochemical, dose response (AID 488876); format: functional
[6] = molecular target: Intestinal-type alkaline phosphatase (Mus musculus, UniProt P24822); assay: PubChem AID 488785; format: functional
[7] = molecular target: T2, Endoribonuclease toxin MazF (Escherichia coli K-12, UniProt P0AE70); assay: fluorescent RNA oligo signal without MazF, dose response, counter-screen for MazEF activator project, biochemical, fluorescence, single-stranded RNase substrate (AID 588502); format: functional
T2 sequence (P0AE70 whole entry): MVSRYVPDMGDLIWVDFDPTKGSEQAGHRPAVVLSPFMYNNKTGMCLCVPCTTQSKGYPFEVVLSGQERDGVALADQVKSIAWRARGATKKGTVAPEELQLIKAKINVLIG

[8] = molecular target: T2, Endoribonuclease toxin MazF; assay: MazF toxin RNase activators, dose response, biochemical, fluorescence, single-stranded RNA substrate, uHTS hits (AID 588481); format: functional
[9] = molecular target: Paired box protein Pax-8 (Homo sapiens, UniProt Q06710); assay: inhibitors of PAX8-driven TPO luciferase reporter, dose response, RMG-I cells, cherry-pick (AID 687027); format: functional, cell-based;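 note: luciferase reporter driven by Pax8 target thyroperoxidase promoter measured by SteadyGlo luminescence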
[10] = system: Escherichia coli; assay: microbe, parasite or virus in culture
[11] = molecular target: Cyclin-dependent kinase 19 (Homo sapiens, UniProt Q9BWU1); assay: Navigating the Kinome. Panel member name: CDC2L6; format: functional
[12] = molecular target: ALK tyrosine kinase receptor (Homo sapiens, UniProt Q9UM73); format: functional;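 note: ALK tested as one member of a kinase panel screen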
[13] = molecular target: Cytochrome P450 2C9 (Homo sapiens, UniProt P11712)
[14] = molecular target: Cytochrome P450 2D6 (Homo sapiens, UniProt P10635);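 note: CYP2D6 member of a cytochrome P450 panel assay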
[15] = molecular target: T3, High affinity choline transporter 1 (Homo sapiens, UniProt Q9GZV3); assay: CHT inhibitors, dose response, cell-based, 10-point CRC, membrane potential dye (AID 588401); format: functional;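 note: membrane potential dye fluorescence of choline-evoked depolarization via CHT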
T3 sequence (Q9GZV3 whole entry): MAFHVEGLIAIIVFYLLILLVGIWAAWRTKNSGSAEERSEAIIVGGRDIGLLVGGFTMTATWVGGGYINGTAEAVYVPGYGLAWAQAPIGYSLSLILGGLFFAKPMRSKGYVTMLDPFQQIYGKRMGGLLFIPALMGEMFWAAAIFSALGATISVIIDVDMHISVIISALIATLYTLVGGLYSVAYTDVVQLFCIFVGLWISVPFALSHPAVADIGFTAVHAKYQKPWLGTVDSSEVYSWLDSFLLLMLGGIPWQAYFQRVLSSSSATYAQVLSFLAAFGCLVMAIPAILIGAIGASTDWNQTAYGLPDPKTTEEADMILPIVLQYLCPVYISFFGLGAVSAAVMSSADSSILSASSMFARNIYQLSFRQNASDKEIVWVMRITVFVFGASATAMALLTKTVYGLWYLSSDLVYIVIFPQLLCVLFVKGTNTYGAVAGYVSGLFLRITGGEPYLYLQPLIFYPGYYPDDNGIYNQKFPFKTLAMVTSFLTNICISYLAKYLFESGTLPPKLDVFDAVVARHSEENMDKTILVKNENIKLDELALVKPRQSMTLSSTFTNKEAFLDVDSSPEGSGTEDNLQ

[16] = molecular target: T3, High affinity choline transporter 1; assay: CHT inhibitors, dose response, cell-based, 5-point CRC, membrane potential dye (AID 504840); format: functional

Cytochrome P450 2C9, sequence (P11712 whole entry): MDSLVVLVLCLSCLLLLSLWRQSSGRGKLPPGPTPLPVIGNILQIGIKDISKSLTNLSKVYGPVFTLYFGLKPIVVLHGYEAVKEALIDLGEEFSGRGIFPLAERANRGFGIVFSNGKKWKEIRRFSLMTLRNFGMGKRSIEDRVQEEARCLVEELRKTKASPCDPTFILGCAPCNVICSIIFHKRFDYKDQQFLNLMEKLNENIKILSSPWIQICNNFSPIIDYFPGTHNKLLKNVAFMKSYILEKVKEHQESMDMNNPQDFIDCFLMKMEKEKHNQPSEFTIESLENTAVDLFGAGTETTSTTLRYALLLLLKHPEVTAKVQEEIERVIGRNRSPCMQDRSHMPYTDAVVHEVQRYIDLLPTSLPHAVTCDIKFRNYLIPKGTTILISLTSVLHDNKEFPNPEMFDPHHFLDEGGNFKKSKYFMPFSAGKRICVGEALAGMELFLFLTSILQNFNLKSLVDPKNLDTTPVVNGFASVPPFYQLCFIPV
Delta-type opioid receptor, sequence (P41143 whole entry): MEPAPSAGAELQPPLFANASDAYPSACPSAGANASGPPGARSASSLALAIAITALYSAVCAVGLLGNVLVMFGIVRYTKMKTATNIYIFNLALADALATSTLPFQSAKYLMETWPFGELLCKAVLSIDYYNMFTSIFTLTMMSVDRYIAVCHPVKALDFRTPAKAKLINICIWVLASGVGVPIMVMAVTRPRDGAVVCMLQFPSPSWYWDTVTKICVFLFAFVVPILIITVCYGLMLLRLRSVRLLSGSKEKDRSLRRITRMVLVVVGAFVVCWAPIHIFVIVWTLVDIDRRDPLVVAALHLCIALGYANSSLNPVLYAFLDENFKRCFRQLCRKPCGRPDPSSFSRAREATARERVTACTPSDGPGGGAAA
Cyclin-dependent kinase 19, sequence (Q9BWU1 whole entry): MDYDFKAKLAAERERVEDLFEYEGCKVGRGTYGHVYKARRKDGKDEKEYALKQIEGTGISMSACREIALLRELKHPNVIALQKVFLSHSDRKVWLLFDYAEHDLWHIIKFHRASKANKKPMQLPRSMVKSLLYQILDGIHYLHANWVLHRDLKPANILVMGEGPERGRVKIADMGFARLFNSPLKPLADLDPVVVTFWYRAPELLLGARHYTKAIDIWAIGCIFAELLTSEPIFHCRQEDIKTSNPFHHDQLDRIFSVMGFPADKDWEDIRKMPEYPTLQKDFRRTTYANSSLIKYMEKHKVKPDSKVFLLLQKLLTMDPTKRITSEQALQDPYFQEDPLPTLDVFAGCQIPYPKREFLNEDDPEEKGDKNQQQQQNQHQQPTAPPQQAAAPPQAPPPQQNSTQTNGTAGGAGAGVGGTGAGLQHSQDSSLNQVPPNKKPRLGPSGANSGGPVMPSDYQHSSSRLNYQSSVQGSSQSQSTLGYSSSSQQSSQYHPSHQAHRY
Mu-type opioid receptor, sequence (P35372 whole entry): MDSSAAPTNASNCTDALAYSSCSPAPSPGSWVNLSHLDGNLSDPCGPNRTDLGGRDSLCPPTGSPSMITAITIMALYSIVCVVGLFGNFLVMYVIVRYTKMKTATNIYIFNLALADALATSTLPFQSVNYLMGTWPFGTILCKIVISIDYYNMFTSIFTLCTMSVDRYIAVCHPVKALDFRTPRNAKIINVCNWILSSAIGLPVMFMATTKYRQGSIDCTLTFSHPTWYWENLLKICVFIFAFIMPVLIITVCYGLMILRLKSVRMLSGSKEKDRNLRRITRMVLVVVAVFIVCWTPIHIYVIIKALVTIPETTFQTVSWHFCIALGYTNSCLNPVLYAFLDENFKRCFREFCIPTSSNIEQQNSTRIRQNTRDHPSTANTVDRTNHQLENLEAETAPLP
Cytochrome P450 2D6, sequence (P10635 whole entry): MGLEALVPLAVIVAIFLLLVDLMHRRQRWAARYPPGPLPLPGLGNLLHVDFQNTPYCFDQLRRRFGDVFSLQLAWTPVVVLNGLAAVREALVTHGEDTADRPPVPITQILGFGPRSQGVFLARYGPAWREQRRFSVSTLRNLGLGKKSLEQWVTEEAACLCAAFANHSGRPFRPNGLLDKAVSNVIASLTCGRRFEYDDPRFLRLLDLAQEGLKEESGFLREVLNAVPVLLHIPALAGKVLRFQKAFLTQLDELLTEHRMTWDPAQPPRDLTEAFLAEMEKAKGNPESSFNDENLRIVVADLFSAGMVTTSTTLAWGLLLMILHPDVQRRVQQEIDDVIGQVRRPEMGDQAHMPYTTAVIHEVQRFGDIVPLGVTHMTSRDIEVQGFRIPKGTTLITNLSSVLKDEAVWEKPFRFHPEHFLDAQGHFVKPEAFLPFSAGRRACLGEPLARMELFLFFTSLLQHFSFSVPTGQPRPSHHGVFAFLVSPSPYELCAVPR
Intestinal-type alkaline phosphatase (Mus musculus, UniProt P24822), sequence (P24822 whole entry): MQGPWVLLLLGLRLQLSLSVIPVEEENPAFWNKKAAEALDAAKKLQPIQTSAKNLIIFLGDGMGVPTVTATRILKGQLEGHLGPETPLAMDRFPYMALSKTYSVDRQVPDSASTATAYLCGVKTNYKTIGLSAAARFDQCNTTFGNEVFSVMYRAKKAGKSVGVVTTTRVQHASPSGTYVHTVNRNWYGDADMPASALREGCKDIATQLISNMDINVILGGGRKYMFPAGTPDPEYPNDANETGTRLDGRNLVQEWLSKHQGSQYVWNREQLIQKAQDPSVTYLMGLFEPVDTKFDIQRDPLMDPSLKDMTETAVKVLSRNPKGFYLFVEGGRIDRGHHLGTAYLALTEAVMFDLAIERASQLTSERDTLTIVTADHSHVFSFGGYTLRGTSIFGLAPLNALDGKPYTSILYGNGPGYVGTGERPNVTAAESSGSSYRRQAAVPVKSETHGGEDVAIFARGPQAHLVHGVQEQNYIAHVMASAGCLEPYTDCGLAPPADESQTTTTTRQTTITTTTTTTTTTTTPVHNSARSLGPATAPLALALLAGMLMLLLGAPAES
5-hydroxytryptamine receptor 5A, sequence (P47898 whole entry): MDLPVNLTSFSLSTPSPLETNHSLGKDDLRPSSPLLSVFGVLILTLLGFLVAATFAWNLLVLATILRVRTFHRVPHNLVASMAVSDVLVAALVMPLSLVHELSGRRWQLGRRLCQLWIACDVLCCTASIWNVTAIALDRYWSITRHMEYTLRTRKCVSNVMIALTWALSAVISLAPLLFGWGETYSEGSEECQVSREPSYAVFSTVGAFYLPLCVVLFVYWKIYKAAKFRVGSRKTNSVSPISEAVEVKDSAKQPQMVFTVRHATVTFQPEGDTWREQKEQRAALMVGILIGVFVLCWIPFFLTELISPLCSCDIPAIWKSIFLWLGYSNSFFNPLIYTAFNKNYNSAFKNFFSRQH
Intestinal-type alkaline phosphatase (Homo sapiens, UniProt P09923), sequence (P09923 whole entry): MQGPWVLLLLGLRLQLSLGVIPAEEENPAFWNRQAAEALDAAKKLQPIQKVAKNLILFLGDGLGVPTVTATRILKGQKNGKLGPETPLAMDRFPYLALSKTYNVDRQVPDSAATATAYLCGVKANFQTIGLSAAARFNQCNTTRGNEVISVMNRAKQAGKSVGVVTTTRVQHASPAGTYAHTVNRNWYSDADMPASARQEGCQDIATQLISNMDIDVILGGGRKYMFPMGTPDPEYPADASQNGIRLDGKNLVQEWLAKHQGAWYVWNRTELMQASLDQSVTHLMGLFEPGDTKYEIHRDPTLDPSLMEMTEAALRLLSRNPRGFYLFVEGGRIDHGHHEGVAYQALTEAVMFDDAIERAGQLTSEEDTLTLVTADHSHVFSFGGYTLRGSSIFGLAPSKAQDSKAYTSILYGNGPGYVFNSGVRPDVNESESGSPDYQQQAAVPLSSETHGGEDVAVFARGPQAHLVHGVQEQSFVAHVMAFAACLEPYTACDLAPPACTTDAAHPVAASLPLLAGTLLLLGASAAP
Paired box protein Pax-8, sequence (Q06710 whole entry): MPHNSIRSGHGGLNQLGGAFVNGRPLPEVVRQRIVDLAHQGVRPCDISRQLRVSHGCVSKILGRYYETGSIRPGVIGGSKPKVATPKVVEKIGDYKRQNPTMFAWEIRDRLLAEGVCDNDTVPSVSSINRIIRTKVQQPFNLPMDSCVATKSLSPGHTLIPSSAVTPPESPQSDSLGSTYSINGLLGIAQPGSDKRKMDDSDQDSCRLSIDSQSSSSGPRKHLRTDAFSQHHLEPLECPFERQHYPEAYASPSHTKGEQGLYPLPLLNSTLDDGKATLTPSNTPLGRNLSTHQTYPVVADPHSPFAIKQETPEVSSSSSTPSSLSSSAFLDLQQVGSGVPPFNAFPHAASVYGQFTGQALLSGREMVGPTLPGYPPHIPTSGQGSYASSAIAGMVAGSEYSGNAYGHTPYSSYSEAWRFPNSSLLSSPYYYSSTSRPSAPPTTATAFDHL

**Q.** How did the EC50 [1] turn out when `CCN1CCN(c2ccc([N+](=O)[O-])c(Sc3nc4ccccc4[nH]3)c2)CC1` was run?
**A.** 4.1 µM (active)

**Q.** What about the EC50 [2] of the same molecule?
**A.** > 92.5 µM (inactive)

**Q.** And the EC50 [3]?
**A.** > 92.5 µM (inactive)

**Q.** Which IC50 [4] does the source give for `O=C1NN(c2cccc(Br)c2)C(=O)/C1=C/c1ccc(-c2cc([N+](=O)[O-])ccc2O)o1` here?
**A.** > 100 µM (inactive)

**Q.** What about the IC50 [5] of the same molecule?
**A.** > 100 µM (inactive)

**Q.** What about the IC50 [6] of the same molecule?
**A.** 4.7 µM (active)

**Q.** Which results are given for `COc1ccccc1/N=C/c1c(C)c(C#N)c2nc3ccccc3n2c1O`?
**A.** EC50 [7]: > 99 µM (inactive); EC50 [8]: > 99 µM (inactive)

**Q.** For `O=C1/C(=C/c2ccc3c(c2)OCO3)SC(=S)N1CCC(=O)N(CCO)c1ccccc1`, which EC50 [7] is on record?
**A.** 90.4 µM (inactive)

**Q.** What about the EC50 [8] of the same molecule?
**A.** > 99 µM (inactive)

**Q.** With `CC(C)=CCC/C(C)=C/CNC(=O)C[C@H]1C[C@H](C(=O)N2CCOCC2)[C@@]2(C)c3[nH]c4ccc(Cl)cc4c3CCN2C1=O` as the molecule, how does the AC50 [9] read?
**A.** 11.8 µM (active)

**Q.** And the AC50 [10]?
**A.** 112 µM (active)

**Q.** How did the AC50 [10] turn out when `CC(C)n1ncc2c(C(=O)N3CCN(Cc4ccc(Br)s4)CC3)cc(C3CC3)nc21` was run?
**A.** 76 µM (active)

**Q.** How did the Ki [11] turn out when `CCOc1ccc(-c2nc3ccccn3c2-c2ccnc(Nc3cccc(CCN(C)C)c3)n2)cc1` was run?
**A.** 6.31 µM (active)

**Q.** And the Ki [12]?
**A.** 0.316 µM (active)

**Q.** With `Cc1cc(C)c(NC(=O)NC(=O)c2ccc(F)cc2)c(C)n1` as the molecule, how does the AC50 [13] read?
**A.** inconclusive

**Q.** With `COc1ccc(CNc2ccnc(-c3cccc(NS(C)(=O)=O)c3)n2)c(OC)c1` as the molecule, how does the AC50 [14] read?
**A.** 12.6 µM (inconclusive)

**Q.** What about the AC50 [13] of the same molecule?
**A.** inconclusive

**Q.** `O=C(Nc1ccc(S(=O)(=O)NCC2CCCO2)cc1)c1ccc(Cl)cc1[N+](=O)[O-]` (stereo not given) was tested. Which IC50 [15] did it give?
**A.** 4.47 µM (active)

**Q.** What about the IC50 [16] of the same molecule?
**A.** 7.39 µM (active)
